Measurements: PubChem BioAssay (NCI)
Values joined by “and” are separate entries in the source; they are usually repeats but may differ in a detail not shown here. Equal values may be shown once.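 Step 1: Grow cells in 96-well plates. Step 2: Expose to compound for 48 hours at 5 concentrations. Step 3: Interpolate endpoints linearly; if unreached, use highest concentration. GI50: concentration for 50% inhibition of growth. At the TGI there is no net growth.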

Legend:
Test in all cases: DTP human tumour cell line panel, 48 h
[1] = test system: OVCAR-4 ovarian
[2] = test system: OVCAR-5 ovarian
[3] = test system: IGROV1 ovarian
[4] = test system: A498 renal
[5] = test system: ACHN renal
[6] = test system: SNB-78 CNS
[7] = test system: NCI-H460 lung
[8] = test system: NCI-H522 lung
[9] = test system: 786-0 renal
[10] = test system: MOLT-4 leukemia

Cc1cc2c(cc1C)[n+](=O)c(C(=O)CC(=O)C(=O)Nc1ccccc1C(C)C)c(C)n2[O-]
TGI [1]: > 100 µM
TGI [2]: > 100 µM
TGI [3]: > 100 µM
TGI [4]: > 100 µM
TGI [5]: > 100 µM
TGI [6]: > 100 µM
TGI [7]: > 100 µM
TGI [8]: > 100 µM
TGI [9]: > 100 µM
TGI [10]: > 100 µM

O=C(O)CCC1CCc2cccc(OCC(=O)O)c2C1=O (configuration not stated)
TGI [1]: > 100 µM
TGI [3]: > 100 µM
TGI [4]: > 100 µM
TGI [5]: > 100 µM
TGI [6]: > 100 µM
TGI [7]: > 100 µM
TGI [9]: > 100 µM
TGI [10]: > 100 µM

O=C(Cc1ccccc1)NN1C(=O)C(Cl)C1c1cccc([N+](=O)[O-])c1 (configuration not stated)
TGI [1]: > 92.9 µM
TGI [2]: > 100 µM
TGI [3]: 19.3 µM
TGI [4]: > 100 µM
TGI [5]: > 100 µM
TGI [6]: > 100 µM
TGI [7]: > 100 µM
TGI [8]: 3.64 µM
TGI [9]: > 84.4 µM
TGI [10]: 45 µM

O=C(N/C=C/C=C/Sc1ccccc1)OCc1ccccc1
TGI [1]: 57 µM
TGI [2]: 33.1 µM
TGI [3]: 42.1 µM
TGI [5]: 68.9 µM
TGI [6]: > 100 µM
TGI [7]: 57 µM
TGI [8]: 29.7 µM
TGI [9]: 31 µM
TGI [10]: > 100 µM

COc1cc2c3c(n(CCCN4CCCNCC4)c(=O)c2cc1OC)-c1cc2c(cc1C3=O)OCO2
GI50 [1]: 2.91 µM
TGI [1]: 11.1 µM
GI50 [2]: 2.69 µM
TGI [2]: 9.69 µM
GI50 [3]: 1.15 µM
TGI [3]: 21.5 µM
GI50 [4]: 1.16 µM
TGI [4]: 13.5 µM
GI50 [5]: 0.193 µM
TGI [5]: 0.751 µM
GI50 [7]: 0.0545 µM
TGI [7]: 6.47 µM
GI50 [8]: 1.87 µM
TGI [8]: 24.8 µM
GI50 [9]: 0.268 µM
TGI [9]: 1.14 µM
GI50 [10]: 0.0384 µM
TGI [10]: 50 µM

O=C(/C=C/c1cccc(S(=O)(=O)Nc2ccccc2)c1)NO
GI50 [1]: 1.98 µM and 1.08 µM
TGI [1]: > 100 µM
GI50 [2]: 0.428 µM and 0.146 µM
TGI [2]: 13.2 µM and > 16.9 µM
GI50 [3]: 0.623 µM and 0.116 µM
TGI [3]: 4.43 µM and > 26.6 µM
GI50 [4]: 0.273 µM and 0.305 µM
TGI [4]: 1.34 µM and 1.12 µM
GI50 [5]: 0.429 µM and 0.422 µM
TGI [5]: 3.22 µM and 8.44 µM
GI50 [7]: 0.376 µM and 0.116 µM
TGI [7]: 34 µM and 5.42 µM
GI50 [8]: 0.191 µM and 0.0603 µM
TGI [8]: 1.98 µM and 17.2 µM
GI50 [9]: 2.17 µM and 0.934 µM
TGI [9]: 12.6 µM and 11.2 µM
TGI [10]: > 29.9 µM

C#CCn1c(=O)c2cccnc2n(CC#C)c1=O
TGI [1]: > 100 µM
TGI [2]: > 100 µM
TGI [5]: > 100 µM
TGI [6]: > 100 µM
TGI [7]: > 100 µM
TGI [8]: > 100 µM
TGI [9]: > 100 µM
TGI [10]: > 100 µM

C=C(CN1CCN(c2ccccc2C(F)(F)F)CC1)c1ccc(C(=O)Nc2ccccc2N)cc1
GI50 [1]: 6.53 µM
TGI [1]: > 84.3 µM
GI50 [2]: 11.8 µM
TGI [2]: > 100 µM
GI50 [3]: 6.03 µM
TGI [3]: > 100 µM
GI50 [4]: 5.36 µM
TGI [4]: 31.8 µM
GI50 [5]: 7.19 µM
TGI [5]: > 100 µM
GI50 [7]: 5.59 µM
TGI [7]: 43.6 µM
GI50 [8]: 1.91 µM
TGI [8]: > 28.1 µM
GI50 [9]: 2.36 µM
TGI [9]: 15.1 µM
GI50 [10]: 0.125 µM
TGI [10]: 2.55 µM

CN(C)CC1CCCCCCCCCCCCC(CN(C)C)C1=O (configuration not stated)
TGI [1]: 29.4 µM
TGI [2]: 30.6 µM
TGI [3]: 33.1 µM
TGI [4]: 33 µM
TGI [5]: 29.9 µM
TGI [6]: 28.7 µM
TGI [7]: 27.6 µM
TGI [9]: 21.7 µM
TGI [10]: 20.8 µM
